Measured values from ChEMBL document CHEMBL1137376 (J Med Chem, 2006).
The source made the active and inactive calls. No cut-off for these calls is given here. Non-standard residues stand in square brackets, D forms with d. Residues, ends and D or L forms follow the SMILES beside them. Phe(4-NH2) = Nc1ccc(C[C@H](N)C(=O)O)cc1

Assays:
[1] = target: T1, Angiotensin II receptor (AT-1) type-1 (Rattus norvegicus, UniProt P29089+P25095); assay: Displacement of [125I]Ang2 from AT1 receptor in rat liver membrane; assay type: cell membranes
T1 sequence (P29089 whole entry): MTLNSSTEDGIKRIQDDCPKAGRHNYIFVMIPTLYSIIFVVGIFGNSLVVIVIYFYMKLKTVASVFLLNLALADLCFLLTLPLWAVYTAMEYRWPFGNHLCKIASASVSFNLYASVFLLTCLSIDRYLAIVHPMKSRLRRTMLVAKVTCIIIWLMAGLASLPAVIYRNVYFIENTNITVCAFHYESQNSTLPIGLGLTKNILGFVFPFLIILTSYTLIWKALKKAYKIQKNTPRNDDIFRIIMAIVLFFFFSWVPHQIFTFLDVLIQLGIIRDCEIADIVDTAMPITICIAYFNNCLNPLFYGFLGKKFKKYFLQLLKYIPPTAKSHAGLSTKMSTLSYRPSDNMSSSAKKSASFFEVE
T1 sequence (P25095 whole entry): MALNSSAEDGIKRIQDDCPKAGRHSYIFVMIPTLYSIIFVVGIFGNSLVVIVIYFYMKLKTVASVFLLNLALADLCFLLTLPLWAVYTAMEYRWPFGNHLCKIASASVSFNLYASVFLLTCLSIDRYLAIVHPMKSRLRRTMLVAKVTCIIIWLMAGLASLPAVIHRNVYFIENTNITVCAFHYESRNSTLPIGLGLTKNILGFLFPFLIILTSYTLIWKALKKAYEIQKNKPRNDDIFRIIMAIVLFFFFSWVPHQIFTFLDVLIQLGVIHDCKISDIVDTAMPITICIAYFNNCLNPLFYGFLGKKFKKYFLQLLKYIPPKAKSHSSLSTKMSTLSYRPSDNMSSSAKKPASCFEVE

[2] = target: T2, Type-1 angiotensin II receptor (Oryctolagus cuniculus) (UniProt P34976); assay: Agonist activity at AT1 receptor measured as contraction of rabbit thoracic aorta at 3.0 nM to 3.0 uM; assay type: functional, tissue-based
T2 sequence (whole entry): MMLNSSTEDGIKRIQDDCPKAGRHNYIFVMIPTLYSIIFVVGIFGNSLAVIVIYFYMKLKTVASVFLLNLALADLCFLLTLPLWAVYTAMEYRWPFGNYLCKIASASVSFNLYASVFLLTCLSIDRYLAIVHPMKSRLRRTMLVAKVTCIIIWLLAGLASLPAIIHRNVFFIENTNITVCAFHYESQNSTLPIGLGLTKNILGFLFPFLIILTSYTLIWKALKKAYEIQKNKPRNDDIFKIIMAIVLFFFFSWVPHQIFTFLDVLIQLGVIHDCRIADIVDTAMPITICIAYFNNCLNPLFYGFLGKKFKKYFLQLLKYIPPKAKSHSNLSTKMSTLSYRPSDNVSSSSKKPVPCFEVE

SMILES | Ki [1] [nM] | Activity [2]
CC[C@H](C)[C@H](NC(=O)[C@H](Cc1ccc(O)cc1)NC(=O)[C@@H](NC(=O)[C@H](CCCN=C(N)N)NC(=O)[C@@H](N)CC(=O)O)C(C)C)C(=O)N[C@@H](Cc1ccc(N)cc1)C(=O)N1CCC[C@H]1C(=O)N[C@@H](Cc1ccccc1)C(=O)O (H-DRVYI[Phe(4-NH2)]PF-OH) | > 10000 | –
CC[C@H](C)[C@@H]1Nc2c(Cc3ccc(O)cc3)cc(NC(=O)[C@H](CCCN=C(N)N)NC(=O)[C@@H](N)CC(=O)O)cc2CN(CC(=O)N2CCC[C@H]2C(=O)N[C@@H](Cc2ccccc2)C(=O)O)C1=O | 2108 | –
CC[C@H](C)[C@@H]1Nc2c(Cc3ccc(O)cc3)cc(NC(=O)[C@H](CCCN=C(N)N)NC(=O)[C@@H](N)CC(=O)O)cc2CN(CC(=O)N[C@@H](Cc2c[nH]cn2)C(=O)N2CCC[C@H]2C(=O)N[C@@H](Cc2ccccc2)C(=O)O)C1=O | 1668 | –
CC[C@H](C)[C@@H]1Nc2c(Cc3ccc(O)cc3)cc(NC(=O)[C@@H](NC(=O)[C@H](CCCN=C(N)N)NC(=O)[C@@H](N)CC(=O)O)C(C)C)cc2CN(CC(=O)N[C@@H](Cc2c[nH]cn2)C(=O)N2CCC[C@H]2C(=O)N[C@@H](Cc2ccccc2)C(=O)O)C1=O | 14.9 | inactive
